Results as given in patent US20260041093A1, “Ionic Derivatives Of Aromatic Carboxylic Acid For Use As Plant Stimulants, Method For Stimulating Plants And Use Of These Derivatives For Manufacturing Compositions For Stimulating Plants” (FUNDACJA UNIWERSYTETU IM. ADAMA MICKIEWICZA W POZNANIU, priority 2022, published 2026).
Where two headings read alike, the source gives them in different places.

How the values were obtained:
tulip = assay: Tulip bulbs in peat watered with working solution: height, stem diameter, weights, root length, flowering, vigor (Example 1); assay type: in vivo; details: 80 mg/L, benzothiadiazole salt 30 mg/L; for Vigor [on a scale from 1 to 5]: 1 is a laying plant, 5 is a stiff plant; for Average plant height, initial height, first treatment: before 1st watering; for Average plant height, second treatment: before 2nd watering; for Average plant height, third treatment: before 3rd watering; for Average plant height, fourth treatment: before 4th watering; for Average plant height, 20 days after the 4th treatment: end of experiment
Method: Control plants were watered with distilled water. During the conducted experiment, plant height was measured before each treatment. Flowering length and plant vigor were also studied. After 20 days from the end of the last treatment, the fresh and dry weight of aboveground parts and roots, and root length were assessed.

powdery mildew fungus [1] = assay type: in vivo, tomato; details: 80 mg/L, watered twice; 2 weeks after infection
Method: Tomato plants, at the stage of the first pair of developed true leaves, were watered twice with a solution of substance 1-32 at a concentration of 80 mg/L, at a weekly interval. The control was tomato plants watered only with water. […] The suspension was prepared from culture on solid medium. Protection against biotic stress was evaluated by comparing the area of leaves affected by infection.

powdery mildew fungus [2] = assay: Protection of tomato against powdery mildew by spraying (Example 35); assay type: in vivo, Lycopersicon Esculentum Mill tomato; details: 40 mg/l, sprayed twice; 2 weeks after pathogen inoculation
Method: […] The control was tomato plants watered only with water. […] The suspension was prepared from culture on solid medium. Protection against biotic stress was evaluated by comparing the area of leaves affected by infection.
Proceeded in the way as described in Example 34, with the difference that plants were sprayed and not watered.

TMV = assay: Protection of tobacco against TMV, single spray, comparison with BION (Example 26); assay type: in vivo, Nicotiana tabacum cv. Xanthi; details: sprayed once, infected a week later
Method: Tobacco plants (Nicotiana tabacum) cv. Xanthi at the stage of three developed leaves were sprayed once with solutions of substance 1-5 or BION™ at concentrations of 10, 40, 80 mg/L. A week later, they were mechanically infected with TMV by rubbing the leaves with a square soaked in a suspension of purified virus, with a concentration of about 2 μg/ml. The level of protection against the effects of biotic stress was evaluated by comparing the number of necrotic spots caused by TMV on the leaves of plants treated with substances 1-5 and BION™ and control plants.
A reduction in the number of necrotic spots indicates protection from the effects of the biotic agent on the plant.

poinsettia = details: treated three times, 50 mg/L; not watered for 7 days; control plants wilted
Source text: The plants were then subjected to drought stress—they were not watered for 7 days.

[3] = tested on: Tobacco Mosaic Virus (TMV); assay: Protection of tobacco against TMV infection by watering twice (Example 24); assay type: in vivo, Nicotiana tabacum cv. Xanthi; details: watered twice, 7 days after infection
Method: Tobacco plants (Nicotiana tabacum) cv. […] 3,5-dichlorosalicylate of choline; 4. 3-chlorosalicylate of sodium, 5. 3-chlorosalicylate of potassium, 6. 3-chlorosalicylate of calcium, 7. 3-chlorosalicylate of magnesium at a concentration of 10 or 40 or 80 mg/L, at one-week intervals. The control was tobacco plants watered only with water. One week after the second treatment of the plants with the preparation, mechanical infection of the leaves with Tobacco Mosaic Virus (TMV) was carried out. This consisted of rubbing carborundum-sprinkled leaves several times with fingers soaked in a suspension of purified virus at a concentration of about 2 μg/ml. In order to evaluate the effectiveness of the tested substances in protection against biotic stresses, the TMV model and tobacco cv. Xanthi characterized by an interaction in the form of hypersensitivity phenomenon, i.e. the formation of easily quantifiable necrotic spots, were used.

[4] = tested on: Pseudomonas syringae pv. Tomato; assay: Direct effect on bacterial infectivity (Example 22); assay type: in vivo; details: tobacco plant, 5 days after infection with solution of bacteria and test substance; control 100
Method: Proceeding as in example 21, Pseudomonas syringae pv. Tomato bacteria were tested and incubated in bacterial medium.

Brome Mosaic Virus (BMV) = assay: Protection of barley against Brome Mosaic Virus infection by watering (Examples 28 and 29); assay type: in vivo; details: 2 weeks after infection
[5] = tested on: tobacco mosaic virus (TMV); assay: Direct effect on TMV infectivity: virus incubated with substance, then Xanthi tobacco leaves infected (Example 21); assay type: in vivo; details: TMV about 3 μg/ml mixed 1:1 with substance 80 mg/L, 30 min; 5 days after infection; control 100
Method: Sodium 3-chlorosalicylate; 5. Potassium 3-chlorosalicylate; 6. Calcium 3-chlorosalicylate; 7. Magnesium 3-chlorosalicylate (concentration 80 mg/L), in a 1:1 ratio and incubated for 30 min at room temperature. The control variant consisted of TMV incubated in water. All virus suspensions were used to mechanically infect Xanthi tobacco leaves, whose reaction to infection is manifested in easily quantifiable local necrotic spots (hypersensitivity, local infection).
After 5 days, the area of leaf covered by necrotic spots compared to total leaf area was calculated for plants of all variants of treatment.

[6] = tested on: Pseudomonas syringae pv. Tomato (Pst); details: 2 weeks after infection
Method: Tobacco plants at the stage of 3 developed leaves were watered twice, at a weekly interval, with a solution of test substances 1-11 at concentrations of 10, 40, 80 mg/L. The control was tobacco plants watered with water only. One week after the second treatment, a suspension of Pst bacteria at a concentration of 10^5 was spotted into the leaves using an insulin syringe (without a needle). The suspension was prepared from a two-day culture of Pst on solid medium. Protection against biotic stress was evaluated by the proliferation of bacteria in the leaves at the insertion site and the formation of a necrotic spot, compared to the control.
We proceeded as in Example 30, with the effectiveness of protection against biotic stress tested against bacterial cell concentrations raised to about 10^6.

[7] = tested on: Tobacco Mosaic Virus (TMV); assay: Protection of tobacco against TMV infection by spraying twice (Example 25); assay type: in vivo, Nicotiana tabacum cv. Xanthi; details: sprayed twice, 7 days after infection
Source text: 5-chlorosalicylate of choline; 3. 3,5-dichlorosalicylate of choline; 4. 3-chlorosalicylate of sodium, 5. 3-chlorosalicylate of potassium, 6. 3-chlorosalicylate of calcium, 7.

[8] = Table 2, 20 days after last treatment
[9] = Table 3 (title: tulip bulbs / root system)

C[N+](C)(C)CCO.O=C([O-])c1cccc2nnsc12
Average stem diameter at the end of the experiment 20 days after the 4th treatment (tulip): 8.3 b mm
Flowering length (tulip): 23 days
Root length (tulip): 84.7 b mm
Vigor [on a scale from 1 to 5] (tulip): 4.9 b
Average dry weight of the above-ground part (tulip; [8]): 44.1 b g
Average fresh weight of the above-ground part (tulip; [8]): 435.7 b g
Average dry weight of the above-ground part (tulip; [9]): 5.7 b g
Average fresh weight of the above-ground part (tulip; [9]): 61.0 b g
Average plant height, initial height, first treatment (tulip): 46.4 a mm
Average plant height, second treatment (tulip): 133.6 b mm
Average plant height, third treatment (tulip): 271.2 b mm
Average plant height, fourth treatment (tulip): 375.6 b mm
Average plant height, 20 days after the 4th treatment (tulip): 518.0 b mm

C[N+](C)(C)CCO.O=C([O-])c1cccc(Cl)c1O [choline 3-chlorosalicylate]
% reduction in necrotic spots compared to control (powdery mildew fungus [1]): 95%
Reduction in necrotic spots (white patches) compared to control (powdery mildew fungus [2]): 72%
% reduction in necrotic spots compared to control (TMV; 10 mg/L): 58%
% reduction in necrotic spots compared to control (TMV; 40 mg/L): 92%
% reduction in necrotic spots compared to control (TMV; 80 mg/L): 98%
drought effects on the plants (poinsettia): no drought effects were observed
% reduction in necrotic spots compared to control ([3]; 10 mg/L): 80%
% reduction in necrotic spots compared to control ([3]; 40 mg/L): 100%
% reduction in necrotic spots compared to control ([3]; 80 mg/L): 100%
% of necrotic spots [4]: 99%
Average stem diameter at the end of the experiment 20 days after the 4th treatment (tulip): 8.1 b mm
Flowering length (tulip): 23 days
Root length (tulip): 84.3 b mm
Vigor [on a scale from 1 to 5] (tulip): 4.8 b
Average dry weight of the above-ground part (tulip; [8]): 41.8 b g
Average fresh weight of the above-ground part (tulip; [8]): 443.8 b g
Average dry weight of the above-ground part (tulip; [9]): 5.6 b g
Average fresh weight of the above-ground part (tulip; [9]): 59.5 b g
Average plant height, initial height, first treatment (tulip): 45.7 a mm
Average plant height, second treatment (tulip): 130.5 b mm
Average plant height, third treatment (tulip): 257.4 b mm
Average plant height, fourth treatment (tulip): 369.1 b mm
Average plant height, 20 days after the 4th treatment (tulip): 510.9 b mm
% reduction in necrotic spots compared to control (Brome Mosaic Virus (BMV); 10 mg/L, watered): 69%
% reduction in necrotic spots compared to control (Brome Mosaic Virus (BMV); 80 mg/L, watered twice): 100%
% reduction in necrotic spots compared to control (Brome Mosaic Virus (BMV); 80 mg/L, watered twice, listed as 2-hydroxyethyl(trimethyl)ammonium 3-chlorosalicylate): 98%
% of necrotic spots [5]: 98%
% reduction in necrotic spots compared to control ([6]; 10 mg/L, watered twice, Pst 10^5): 65%
% reduction in necrotic spots compared to control ([6]; 40 mg/L, watered twice, Pst 10^5): 72%
% reduction in necrotic spots compared to control ([6]; 80 mg/L, bacterial cell concentration raised to about 10^6): 85%
% reduction in necrotic spots compared to control ([6]; 80 mg/L, watered twice, Pst 10^5): 89%
% reduction in necrotic spots compared to control ([7]; 10 mg/L): 80%
% reduction in necrotic spots compared to control ([7]; 40 mg/L): 100%
% reduction in necrotic spots compared to control ([7]; 80 mg/L): 85%
